Assay results reported in patent publication US20090156518A1, “STABLE PHARMACEUTICAL COMPOSITION COMPRISING BETA-LACTAM ANTIBIOTIC AND BUFFER” (priority 2006, published 2009).
Each block holds one compound with its values, some of them ahead of it.

Assay: amounts of β-lactam antibiotic, β-lactamase inhibitor (C18 reverse-phase LC, UV-VIS) and aminoglycoside (HPLC-ELSD) in solution over time
Type: physicochemical
Procedure: The amounts of β-lactam antibiotics and β-lactamase inhibitor were determined using C18 reverse-phase LC and UV-VIS detector (Tianjin Hemay BioTech Co., Ltd., analysis method No. HM-K-03). The content of aminoglycoside antibiotics was measured using reverse-phase HPLC and evaporation-light-scattering detector (ELSD detector) (Tianjin Hemay BioTech Co., Ltd., analysis method No. HM-K-08). The amount of antibiotic component at each time point was expressed as a percentage with respect to the amount at the initial time (herein defined as 100%). The relative amount of each antibiotic component in the composition at each time point was expressed as peak area ratio with respect to the corresponding peak area of an external standard.

amount of component as percentage with respect to the amount at the initial time (Example 5: freeze-dried cefoperazone sodium 4 g, sulbactam sodium 0.5 g, citrate pH 6.75, + amikacin sulfate 500 mg, 7 days 0° C., dissolved in 100 mL water, Time 0 h): 98.98%
amount of component as percentage with respect to the amount at the initial time (Example 5: freeze-dried cefoperazone sodium 4 g, sulbactam sodium 0.5 g, citrate pH 6.75, + amikacin sulfate 500 mg, 7 days 0° C., dissolved in 100 mL water, Time 1 h): 98.73%
amount of component as percentage with respect to the amount at the initial time (Example 5: freeze-dried cefoperazone sodium 4 g, sulbactam sodium 0.5 g, citrate pH 6.75, + amikacin sulfate 500 mg, 7 days 0° C., dissolved in 100 mL water, Time 2 h): 98.52%
amount of component as percentage with respect to the amount at the initial time (Example 5: freeze-dried cefoperazone sodium 4 g, sulbactam sodium 0.5 g, citrate pH 6.75, + amikacin sulfate 500 mg, 7 days 0° C., dissolved in 100 mL water, Time 4 h): 98.41%
amount of component as percentage with respect to the amount at the initial time (Example 5: freeze-dried cefoperazone sodium 4 g, sulbactam sodium 0.5 g, citrate pH 6.75, + amikacin sulfate 500 mg, 7 days 0° C., dissolved in 100 mL water, Time 6 h): 98.76%
amount of component as percentage with respect to the amount at the initial time (Example 17: freeze-dried cefoperazone sodium 4 g, sulbactam sodium 1 g, citrate pH 6.75, 7 days 0° C., in 100 mL water, 10 mL + amikacin sulfate 40 mg, room temperature, Time 0 h): 99.91%
amount of component as percentage with respect to the amount at the initial time (Example 17: freeze-dried cefoperazone sodium 4 g, sulbactam sodium 1 g, citrate pH 6.75, 7 days 0° C., in 100 mL water, 10 mL + amikacin sulfate 40 mg, room temperature, Time 1 h): 99.50%
amount of component as percentage with respect to the amount at the initial time (Example 17: freeze-dried cefoperazone sodium 4 g, sulbactam sodium 1 g, citrate pH 6.75, 7 days 0° C., in 100 mL water, 10 mL + amikacin sulfate 40 mg, room temperature, Time 2 h): 98.88%
amount of component as percentage with respect to the amount at the initial time (Example 17: freeze-dried cefoperazone sodium 4 g, sulbactam sodium 1 g, citrate pH 6.75, 7 days 0° C., in 100 mL water, 10 mL + amikacin sulfate 40 mg, room temperature, Time 4 h): 99.45%
amount of component as percentage with respect to the amount at the initial time (Example 17: freeze-dried cefoperazone sodium 4 g, sulbactam sodium 1 g, citrate pH 6.75, 7 days 0° C., in 100 mL water, 10 mL + amikacin sulfate 40 mg, room temperature, Time 6 h): 98.56%
amount of component as percentage with respect to the amount at the initial time (Example 17: freeze-dried cefoperazone sodium 4 g, sulbactam sodium 1 g, citrate pH 6.75, 7 days 0° C., in 100 mL water, 10 mL + amikacin sulfate 40 mg, room temperature, Time 8 h): 99.36%
Structure (SMILES): NCC[C@H](O)C(=O)N[C@@H]1C[C@H](N)[C@@H](O[C@H]2O[C@H](CN)[C@@H](O)[C@H](O)[C@H]2O)[C@H](O)[C@H]1O[C@H]1O[C@H](CO)[C@@H](O)[C@H](N)[C@H]1O.O=S(=O)(O)O.O=S(=O)(O)O [Amikacin sulfate, amikacin sulfate]

amount of component as percentage with respect to the amount at the initial time (Example 12: freeze-dried cefodizime sodium, citrate pH 6.75, 7 days 0° C., in 100 mL 5% fructose + etimicin sulfate 200 mg, Time 0 h): 99.01%
amount of component as percentage with respect to the amount at the initial time (Example 12: freeze-dried cefodizime sodium, citrate pH 6.75, 7 days 0° C., in 100 mL 5% fructose + etimicin sulfate 200 mg, Time 1 h): 103.8%
amount of component as percentage with respect to the amount at the initial time (Example 12: freeze-dried cefodizime sodium, citrate pH 6.75, 7 days 0° C., in 100 mL 5% fructose + etimicin sulfate 200 mg, Time 2 h): 98.33%
amount of component as percentage with respect to the amount at the initial time (Example 12: freeze-dried cefodizime sodium, citrate pH 6.75, 7 days 0° C., in 100 mL 5% fructose + etimicin sulfate 200 mg, Time 4 h): 98.99%
amount of component as percentage with respect to the amount at the initial time (Example 12: freeze-dried cefodizime sodium, citrate pH 6.75, 7 days 0° C., in 100 mL 5% fructose + etimicin sulfate 200 mg, Time 6 h): 97.89%
amount of component as percentage with respect to the amount at the initial time (Example 12: freeze-dried cefodizime sodium, citrate pH 6.75, 7 days 0° C., in 100 mL 5% fructose + etimicin sulfate 200 mg, Time 8 h): 92.52%
amount of component as percentage with respect to the amount at the initial time (Example 18: cefodizime sodium 1 g, etimicin sulfate 200 mg, citrate pH 6.75, 200 mL water, room temperature, Time 0 h): 99.01%
amount of component as percentage with respect to the amount at the initial time (Example 18: cefodizime sodium 1 g, etimicin sulfate 200 mg, citrate pH 6.75, 200 mL water, room temperature, Time 1 h): 103.8%
amount of component as percentage with respect to the amount at the initial time (Example 18: cefodizime sodium 1 g, etimicin sulfate 200 mg, citrate pH 6.75, 200 mL water, room temperature, Time 2 h): 98.33%
amount of component as percentage with respect to the amount at the initial time (Example 18: cefodizime sodium 1 g, etimicin sulfate 200 mg, citrate pH 6.75, 200 mL water, room temperature, Time 4 h): 98.99%
amount of component as percentage with respect to the amount at the initial time (Example 18: cefodizime sodium 1 g, etimicin sulfate 200 mg, citrate pH 6.75, 200 mL water, room temperature, Time 6 h): 97.89%
amount of component as percentage with respect to the amount at the initial time (Example 18: cefodizime sodium 1 g, etimicin sulfate 200 mg, citrate pH 6.75, 200 mL water, room temperature, Time 8 h): 92.52%
Structure (SMILES): CO/N=C(\C(=O)N[C@@H]1C(=O)N2C(C(=O)O)=C(CSc3nc(C)c(CC(=O)O)s3)CS[C@H]12)c1csc(N)n1 [Cefodizime sodium]
